Counter-ions that a name gives are not always drawn.
Key:
[1] = system: isolated ischiadicus nerves; test: Local anaesthetic effect on isolated ischiadicus nerves of frogs; conditions: for ED50 (dose reducing by 50% the amplitude of the action-potential): isolated ischiadicus nerves of frogs
Procedure: 4. Local anaesthetical effect The local anaesthetic effect being characteristic of the majority of antiarrhythmical agents is tested on isolated ischiadicus nerves of frogs. The dose reducing by 50% the amplitude of the action-potential induced by stimulation of the nerves is considered as the rate (ED50) of the local anaesthetic effect.

rats = test: Acute toxicity on rats; format: in vivo; conditions: own investigations
Procedure: (§1) Acute toxicity is measured on rats weighing 150-200 g. The test-compound is injected into the tail wein, within a period of not more, than 5 seconds in a volume of 0.2 ml/100 g. The LD50 -value and the confidentiality limits thereof are evaluated on the basis of the number of animals died within 24 hours. See (J. Pharmacol. Exper. Ther. 96, 89 (1948))

dogs [2] = test: Toxicity on dogs (own investigations); format: in vivo
dogs [3] = test: ECG (EKG) disturbances in dogs; format: in vivo; conditions: dose which exhibits a coronary dilatory effect
right atrium = test: Atrial antifibrillatory effect on cats (atrial fibrillation threshold); format: in vivo
Procedure: (§2) On dogs anaesthetized with Nembutal (25 mg/kg) (iv.) disturbance of the cardiac rhythm was produced by the slow intravenous infusion of 40 - 80 μg/kg of strophantine, the latter amount depending on the sensibility of the animals. After the appearance of cumulated ventricular extrasystolae the test-compounds are intravenously injected in increasing doses and the arrhythmia antagonizing effect is regarded as positive, if the rhythm disturbance reappears after the cessation of the drug effect. Atrial and ventricular antifibrillatory effect on cats
(§3) In cats anaesthetized with an urethane mixture (60/300 mg/kg i.p.) the right atrium and the right ventriculum is irritated through a dipolar silver electrode with 20 Hz rectangular electric stimuli of […]. The threshold intensity (i.e. fibrillation threshold value) just eliciting the fibrillation of the ventriculum is determined. The capacity of the compounds to elevate the fibrillation threshold when administered intravenously is tested. (British J. Pharmacol. 17, 167, 1961).

right ventriculum = test: Ventricular antifibrillatory effect on cats (ventricular fibrillation threshold); format: in vivo
Procedure: as §2, §3

isolated right atrium = test: Effect on spontaneous frequency of isolated right atria of rabbits
Procedure: (§4) 3. effect on the electro-physiological characteristics of isolated right and left atria of rabbits
(§5) Rabbits are killed by blows on the napeon; the isolated right atrium which is surviving in a Locke-solution having a temperature of 32° C the spontane frequency and on the isolated left atrium the electric threshold, the velocity of stimulus-transmission and the maximal driving frequency is determined. (Detailed description of the test: see L. Szekeres and Gy. Papp: "Experimental cardiac arrhythmias and antiarrhythmic drugs." Publishing House of the Hungarian Academy of Sciences, Budapest, 1971). Upon the effect of the rising concentrations of the various test compounds, the increase of the electric threshold indicates the reduction of myocardial stimulability and the decrease of the maximal driving frequency indicates the prolongation of the refractory period.

isolated left atrium = test: Effect on electro-physiological characteristics of isolated left atria of rabbits (electric threshold, velocity of stimulus-transmission, maximal driving frequency)
Procedure: as §4, §5

Acute toxicity on rats = format: in vivo; conditions: rat, in vivo, iv, tail vein injection, deaths within 24 hours, confidence 95 %
Procedure: as §1

strophantine arrhythmia = test: Antagonism of strophantine arrhythmia on dogs; format: in vivo
Procedure: 1. Antagonism of strophantine arrhythmia on dogs
as §2

Compound | Atrial fibrillation threshold, changed value (right atrium; 2 mg/kg iv.) [mA] | Atrial fibrillation threshold, changed value (right atrium; 4 mg/kg iv.) [mA] | Atrial fibrillation threshold, changed value (right atrium; 6 mg/kg iv.) [mA] | Ventricular fibrillation threshold, changed value (right ventriculum; 2 mg/kg iv.) [mA] | Ventricular fibrillation threshold, changed value (right ventriculum; 4 mg/kg iv.) [mA] | Ventricular fibrillation threshold, changed value (right ventriculum; 6 mg/kg iv.) [mA] | Spontaneous frequency/min., changed value (isolated right atrium; 5 mg/l.) [min⁻¹] | Spontaneous frequency/min., changed value (isolated right atrium; 10 mg/l.) [min⁻¹] | Maximal driving frequency/min, changed value (isolated left atrium; 5 mg./l.) [min⁻¹] | Velocity of stimulus-transmission, changed value (isolated left atrium; 5 mg./l.) [m/sec] | Velocity of stimulus-transmission, deviation from basic value (isolated left atrium; 5 mg./l.) [%] | Electric stimulus threshold, changed value (isolated left atrium; 5 mg/l.) [mA] | Maximal driving frequency/min, changed value (isolated left atrium; 10 mg./l.) [min⁻¹] | Velocity of stimulus-transmission, changed value (isolated left atrium; 10 mg./l.) [m/sec] | Velocity of stimulus-transmission, deviation from basic value (isolated left atrium; 10 mg./l.) [%] | Electric stimulus threshold, changed value (isolated left atrium; 10 mg/l.) [mA] | ED50 (dose reducing by 50% the amplitude of the action-potential) [1] [µg/mL] | LD50 at 24 h (Acute toxicity on rats) [mg/kg] | Period of antagonising strophantine arrhythmia (strophantine arrhythmia; dose 2 mg/kg. i.v.) [s] | also measured
COc1cc(C(=O)OCCCNCCC(c2ccccc2)c2ccccc2)cc(OC)c1OC.Cl [3-(3,3-diphenyl-propylamino)-propyl-3,4,5-trimethoxy-benzoate-hydrochloride, reference compound] | – | – | – | – | – | – | – | – | – | – | – | – | – | – | – | – | – | – | – | wash-out from isolated frog nerve ([1]; isolated frog nerve): cound not be washed out from isolated frog nerve; toxicity relative to the compounds of the Formula I, rats (rats): significantly more toxic than the compounds of the Formula I; toxicity relative to the compounds of the Formula I, dogs (dogs [2]): significantly more toxic than the compounds of the Formula I; ECG (EKG) disturbances (dogs [3]): often caused ECG (EKG) disturbances
COc1cc(C(=O)OCCNC2CCCCC2)cc(OC)c1OC [Compound 3, N-2-ethyl-cyclohexylamino-3,4,5-trimethoxy-benzoate-hydrochloride] | 0.95 | 1.02 | 1.18 | 1.02 | 1.19 | 1.68 | 136 | 120 | 264 | 0.34 | -40 | 0.31 | 226 | 0.20 | -54 | 1.71 | 450 | 29 | – | Ventricular fibrillation threshold, deviation from basic value (right ventriculum; 6 mg/kg iv.): +121%; Spontaneous frequency/min., changed value (isolated right atrium; 1 mg/l.): 116 min⁻¹; Maximal driving frequency/min, changed value (isolated left atrium; 1 mg./l.): 352 min⁻¹; Velocity of stimulus-transmission, changed value (isolated left atrium; 1 mg./l.): 0.49 m/sec; Electric stimulus threshold, changed value (isolated left atrium; 1 mg/l.): 0.26 mA; Electric stimulus threshold, deviation from basic value (isolated left atrium; 10 mg/l., in %): +217 /3/
COc1cc(C(=O)OCCNC(C)c2ccccc2)cc(OC)c1OC (centres unmarked) [Compound 1, N-2-ethyl-1-phenyl-ethylamino-3,4,5,-trimethoxy-benzoate-hydrochloride] | 1.02 | – | – | 0.97 | – | – | 121 | 115 | 267 | 0.34 | -15 | 0.32 | 280 | 0.43 | -17 | 0.21 | 710 | 28 | 213 | Period of antagonising strophantine arrhythmia (strophantine arrhythmia; dose 4 mg/kg. i.v.): 260 s
COc1cc(C(=O)OCCNC(C)C)cc(OC)c1OC [Compound 2] | 0.66 | 0.90 | 0.89 | 0.82 | 0.99 | 1.46 | 134 | 120 | 334 | 0.32 | -18 | 0.39 | 251 | 0.32 | -27 | 0.62 | 570 | 57 | 287 | Period of antagonising strophantine arrhythmia (strophantine arrhythmia; dose 0,5 mg/kg. i.v.): 145 s; Period of antagonising strophantine arrhythmia (strophantine arrhythmia; dose 1 mg/kg. i.v.): 228 s
